The molecules below were run against human Class I PI3 kinase γ (Homo sapiens (Human), UniProt P48736) (assay: PI3-Kinase Promega ADP-Glo Max assay, γ isoform). Settings: 40 nM kinase, 3 mM ATP, 500 uM diC8-PtdInsP; read-out: Promega γ PI3K IC50.
Assay type: biochemical
Protocol: Promega ADP-Glo Max assay kit (Cat. No. V7002) was utilized to determine IC50 values for α, β, δ and γ isoforms of human Class I PI3 kinases (Millipore). Samples of kinase (20 nM α or δ, 40 nM β or γ isoform) were incubated with compound for 15 minutes at room temperature in reaction buffer (15 mM HEPES pH 7.4, 20 mM NaCl, 1 mM EGTA, 0.02% Tween 20, 10 mM MgCl2, 0.2 mg/mL bovine-γ-globulins) followed by addition of ATP/diC8-PtdInsP mixture to give final concentrations of 3 mM ATP and 500 uM diC8-PtdInsP. Reactions were incubated at room temperature for 2 hours followed by addition of 25 uL of stop solution. After a 40-minute incubation at room temperature, 50 uL of Promega detection mix was added followed by incubation for 1 hour at room temperature. Plates were then read on Envision plate reader in luminescence mode. Data was converted to % inhibition using the following equation below:
[formula] where S is the sample luminescence, Pos is a positive control without added PI3K, Neg is the negative control without added compound. Data was then plotted as % inhibition vs compound concentration.
Certain compounds provided herein were tested in PI3-Kinase Promega Assay using procedures as described above to determine IC50 values for α, β, δ and/or γ isoforms.

Structure (SMILES)	IC50
C[C@H](NC(=O)c1c(N)nn2cccnc12)c1cc2cccc(Cl)c2c(=O)n1CCNS(C)(=O)=O [Compound 13]	10 to 100 nM
C[C@H](NC(=O)c1c(N)nn2cccnc12)c1cc2cccc(Cl)c2c(=O)n1CCc1ccccc1 [Compound 15]	1000 to 10000 nM
Cc1noc(CCn2c([C@H](C)NC(=O)c3c(N)nn4cccnc34)cc3cccc(Cl)c3c2=O)n1 [Compound 18]	1000 to 10000 nM

Results, then the molecule that gave them:

IC50	Structure (SMILES)
1000 to 10000 nM	C[C@H](NC(=O)c1nc(C2CC2)cnc1N)c1cc2cccc(Cl)c2c(=O)n1-c1ccccc1 [Compound 3]
100 to 500 nM	CCn1cc(-c2cccc3cc([C@H](C)NC(=O)c4c(N)nn5cccnc45)n(-c4ccccc4)c(=O)c23)cn1 [Compound 5]
10 to 100 nM	C[C@H](NC(=O)c1c(N)nn2cccnc12)c1cc2cccc(Cl)c2c(=O)n1CCc1nnn[nH]1 [Compound 16]
100 to 500 nM	C[C@H](NC(=O)c1c(N)nn2cccnc12)c1cc2cccc(Cl)c2c(=O)n1Cc1nnn[nH]1 [Compound 17]

Each molecule was assayed against p110 γ (RAW264.7 cells) (Mus musculus (Mouse), UniProt Q9JHG7) (assay: PI3K-γ selective cellular assay: phospho-AKT in C5a stimulated RAW264.7 macrophages). Settings: serum-starved RAW264.7 cells stimulated with C5a.
Assay type: cell-based
Protocol: Certain compounds provided herein were tested in RAW 264.7 cell model using procedures as described above.

Structure (SMILES)	IC50
C[C@H](NC(=O)c1c(N)nn2cccnc12)c1cc2cccc(Cl)c2c(=O)n1CCNS(C)(=O)=O [Compound 13]	100 to 500 nM
C[C@H](NC(=O)c1c(N)nn2cccnc12)c1cc2cccc(Cl)c2c(=O)n1CCc1ccccc1 [Compound 15]	100 to 500 nM
Cc1noc(CCn2c([C@H](C)NC(=O)c3c(N)nn4cccnc34)cc3cccc(Cl)c3c2=O)n1 [Compound 18]	100 to 500 nM

The remaining lines, values ahead:

IC50	Structure (SMILES)
10 to 100 nM	CCn1cc(-c2cccc3cc([C@H](C)NC(=O)c4c(N)nn5cccnc45)n(-c4ccccc4)c(=O)c23)cn1 [Compound 5]
500 to 1000 nM	C[C@H](NC(=O)c1c(N)nn2cccnc12)c1cc2cccc(Cl)c2c(=O)n1CCc1nnn[nH]1 [Compound 16]
500 to 1000 nM	C[C@H](NC(=O)c1c(N)nn2cccnc12)c1cc2cccc(Cl)c2c(=O)n1Cc1nnn[nH]1 [Compound 17]

Each molecule was assayed against human Class I PI3 kinase α (Homo sapiens (Human), UniProt P42336) (assay: PI3-Kinase Promega ADP-Glo Max assay, α isoform). Settings: 20 nM kinase, 3 mM ATP, 500 uM diC8-PtdInsP; read-out: Promega α PI3K IC50.
Assay type: biochemical

human Class I PI3 kinase α, sequence (P42336 whole entry, canonical isoform): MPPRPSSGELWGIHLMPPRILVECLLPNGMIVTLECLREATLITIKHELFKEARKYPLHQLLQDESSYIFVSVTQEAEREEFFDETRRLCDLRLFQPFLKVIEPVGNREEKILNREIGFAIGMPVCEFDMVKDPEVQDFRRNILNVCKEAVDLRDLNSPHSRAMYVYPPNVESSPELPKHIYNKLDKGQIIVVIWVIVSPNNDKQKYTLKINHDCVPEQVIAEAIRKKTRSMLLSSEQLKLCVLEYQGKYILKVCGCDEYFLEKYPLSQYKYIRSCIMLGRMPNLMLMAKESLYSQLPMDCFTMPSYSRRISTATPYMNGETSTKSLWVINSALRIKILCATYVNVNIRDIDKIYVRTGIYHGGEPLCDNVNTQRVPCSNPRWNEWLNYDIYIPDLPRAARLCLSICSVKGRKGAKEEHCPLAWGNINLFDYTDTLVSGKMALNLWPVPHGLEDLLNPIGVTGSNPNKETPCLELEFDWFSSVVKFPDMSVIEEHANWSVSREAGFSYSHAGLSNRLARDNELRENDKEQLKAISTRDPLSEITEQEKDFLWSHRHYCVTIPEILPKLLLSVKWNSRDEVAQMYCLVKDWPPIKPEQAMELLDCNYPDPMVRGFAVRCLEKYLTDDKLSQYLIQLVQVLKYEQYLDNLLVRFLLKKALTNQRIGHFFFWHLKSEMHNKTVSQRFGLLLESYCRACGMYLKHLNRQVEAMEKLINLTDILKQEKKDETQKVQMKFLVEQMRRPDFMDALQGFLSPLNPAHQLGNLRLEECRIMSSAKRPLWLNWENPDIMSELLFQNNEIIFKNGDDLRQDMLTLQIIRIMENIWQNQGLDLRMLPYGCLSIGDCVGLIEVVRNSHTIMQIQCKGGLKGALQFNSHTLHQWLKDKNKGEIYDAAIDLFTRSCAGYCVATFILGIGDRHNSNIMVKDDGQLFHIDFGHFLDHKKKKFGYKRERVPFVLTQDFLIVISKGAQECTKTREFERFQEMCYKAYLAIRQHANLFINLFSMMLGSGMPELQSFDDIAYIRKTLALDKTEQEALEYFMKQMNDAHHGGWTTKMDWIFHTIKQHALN
human Class I PI3 kinase α, sequence (P27986 whole entry partner, canonical isoform): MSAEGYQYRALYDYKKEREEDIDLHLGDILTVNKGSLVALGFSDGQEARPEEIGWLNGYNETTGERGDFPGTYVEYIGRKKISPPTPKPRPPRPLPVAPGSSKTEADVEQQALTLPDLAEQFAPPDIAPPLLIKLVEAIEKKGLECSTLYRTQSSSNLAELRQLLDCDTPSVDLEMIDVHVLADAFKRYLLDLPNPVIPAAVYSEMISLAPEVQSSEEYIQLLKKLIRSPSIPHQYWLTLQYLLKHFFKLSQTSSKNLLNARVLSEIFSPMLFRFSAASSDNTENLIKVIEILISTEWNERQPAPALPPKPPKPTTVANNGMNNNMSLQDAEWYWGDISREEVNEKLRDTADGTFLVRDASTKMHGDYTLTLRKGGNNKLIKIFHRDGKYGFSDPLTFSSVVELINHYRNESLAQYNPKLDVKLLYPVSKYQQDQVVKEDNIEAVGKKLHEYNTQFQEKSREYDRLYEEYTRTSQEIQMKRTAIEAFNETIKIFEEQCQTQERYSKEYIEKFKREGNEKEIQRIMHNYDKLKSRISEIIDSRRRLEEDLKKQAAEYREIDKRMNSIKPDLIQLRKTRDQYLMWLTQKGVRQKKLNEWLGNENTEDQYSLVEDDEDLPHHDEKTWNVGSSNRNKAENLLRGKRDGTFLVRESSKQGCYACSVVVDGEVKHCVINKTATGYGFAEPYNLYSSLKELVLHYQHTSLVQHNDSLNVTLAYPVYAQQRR

Structure (SMILES)	IC50
C[C@H](NC(=O)c1c(N)nn2cccnc12)c1cc2cccc(Cl)c2c(=O)n1CCNS(C)(=O)=O [Compound 13]	1000 to 10000 nM
C[C@H](NC(=O)c1c(N)nn2cccnc12)c1cc2cccc(Cl)c2c(=O)n1CCc1ccccc1 [Compound 15]	1000 to 10000 nM
Cc1noc(CCn2c([C@H](C)NC(=O)c3c(N)nn4cccnc34)cc3cccc(Cl)c3c2=O)n1 [Compound 18]	1000 to 10000 nM

Other lines, results leading:

IC50	Structure (SMILES)
1000 to 10000 nM	C[C@H](NC(=O)c1nc(C2CC2)cnc1N)c1cc2cccc(Cl)c2c(=O)n1-c1ccccc1 [Compound 3]
1000 to 10000 nM	CCn1cc(-c2cccc3cc([C@H](C)NC(=O)c4c(N)nn5cccnc45)n(-c4ccccc4)c(=O)c23)cn1 [Compound 5]
1000 to 10000 nM	C[C@H](NC(=O)c1c(N)nn2cccnc12)c1cc2cccc(Cl)c2c(=O)n1CCc1nnn[nH]1 [Compound 16]
1000 to 10000 nM	C[C@H](NC(=O)c1c(N)nn2cccnc12)c1cc2cccc(Cl)c2c(=O)n1Cc1nnn[nH]1 [Compound 17]

These molecules were tested against human Class I PI3 kinase δ (Homo sapiens (Human), UniProt O00329) (assay: PI3-Kinase Promega ADP-Glo Max assay, δ isoform). Settings: 20 nM kinase, 3 mM ATP, 500 uM diC8-PtdInsP; read-out: Promega δ PI3K IC50.
Assay type: biochemical

human Class I PI3 kinase δ, sequence (O00329 whole entry, canonical isoform): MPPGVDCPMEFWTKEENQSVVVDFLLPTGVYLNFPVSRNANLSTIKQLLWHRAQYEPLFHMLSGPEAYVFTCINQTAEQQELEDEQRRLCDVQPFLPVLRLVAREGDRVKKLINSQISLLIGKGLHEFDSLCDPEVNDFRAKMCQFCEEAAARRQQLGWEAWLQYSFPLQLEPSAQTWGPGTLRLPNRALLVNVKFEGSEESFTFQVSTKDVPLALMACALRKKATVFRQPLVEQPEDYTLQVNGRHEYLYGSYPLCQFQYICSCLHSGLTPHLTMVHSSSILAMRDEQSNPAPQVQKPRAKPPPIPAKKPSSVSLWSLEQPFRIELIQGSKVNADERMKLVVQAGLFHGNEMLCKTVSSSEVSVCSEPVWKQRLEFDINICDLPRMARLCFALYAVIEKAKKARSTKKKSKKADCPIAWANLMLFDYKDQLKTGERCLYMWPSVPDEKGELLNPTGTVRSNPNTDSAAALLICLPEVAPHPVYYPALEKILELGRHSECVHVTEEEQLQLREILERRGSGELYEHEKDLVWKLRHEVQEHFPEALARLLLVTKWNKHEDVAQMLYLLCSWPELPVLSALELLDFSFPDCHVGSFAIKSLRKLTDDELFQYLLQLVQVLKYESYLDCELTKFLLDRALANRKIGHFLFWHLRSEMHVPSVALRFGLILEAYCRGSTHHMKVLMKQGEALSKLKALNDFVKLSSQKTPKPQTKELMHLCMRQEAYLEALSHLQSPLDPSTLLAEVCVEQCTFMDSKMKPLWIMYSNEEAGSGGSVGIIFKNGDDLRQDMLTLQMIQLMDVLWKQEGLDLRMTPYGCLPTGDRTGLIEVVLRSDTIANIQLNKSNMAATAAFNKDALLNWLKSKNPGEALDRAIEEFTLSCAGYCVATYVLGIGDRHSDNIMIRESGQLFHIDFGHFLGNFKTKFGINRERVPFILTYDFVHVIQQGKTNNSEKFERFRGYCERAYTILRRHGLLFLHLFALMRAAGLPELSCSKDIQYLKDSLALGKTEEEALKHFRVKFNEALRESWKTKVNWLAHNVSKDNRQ
human Class I PI3 kinase δ, sequence (P27986 whole entry partner, canonical isoform): as the sequence (P27986 whole entry partner, canonical isoform) above

Structure (SMILES)	IC50
C[C@H](NC(=O)c1c(N)nn2cccnc12)c1cc2cccc(Cl)c2c(=O)n1CCNS(C)(=O)=O [Compound 13]	1000 to 10000 nM
C[C@H](NC(=O)c1c(N)nn2cccnc12)c1cc2cccc(Cl)c2c(=O)n1CCc1ccccc1 [Compound 15]	1000 to 10000 nM
Cc1noc(CCn2c([C@H](C)NC(=O)c3c(N)nn4cccnc34)cc3cccc(Cl)c3c2=O)n1 [Compound 18]	1000 to 10000 nM

Other lines, results leading:

IC50	Structure (SMILES)
1000 to 10000 nM	C[C@H](NC(=O)c1nc(C2CC2)cnc1N)c1cc2cccc(Cl)c2c(=O)n1-c1ccccc1 [Compound 3]
1000 to 10000 nM	CCn1cc(-c2cccc3cc([C@H](C)NC(=O)c4c(N)nn5cccnc45)n(-c4ccccc4)c(=O)c23)cn1 [Compound 5]
1000 to 10000 nM	C[C@H](NC(=O)c1c(N)nn2cccnc12)c1cc2cccc(Cl)c2c(=O)n1CCc1nnn[nH]1 [Compound 16]
1000 to 10000 nM	C[C@H](NC(=O)c1c(N)nn2cccnc12)c1cc2cccc(Cl)c2c(=O)n1Cc1nnn[nH]1 [Compound 17]

Each molecule was assayed against human Class I PI3 kinase β (Homo sapiens (Human), UniProt P42338) (assay: PI3-Kinase Promega ADP-Glo Max assay, β isoform). Settings: 40 nM kinase, 3 mM ATP, 500 uM diC8-PtdInsP; read-out: Promega β PI3K IC50.
Assay type: biochemical

human Class I PI3 kinase β, sequence (P42338 whole entry, looked up, canonical isoform): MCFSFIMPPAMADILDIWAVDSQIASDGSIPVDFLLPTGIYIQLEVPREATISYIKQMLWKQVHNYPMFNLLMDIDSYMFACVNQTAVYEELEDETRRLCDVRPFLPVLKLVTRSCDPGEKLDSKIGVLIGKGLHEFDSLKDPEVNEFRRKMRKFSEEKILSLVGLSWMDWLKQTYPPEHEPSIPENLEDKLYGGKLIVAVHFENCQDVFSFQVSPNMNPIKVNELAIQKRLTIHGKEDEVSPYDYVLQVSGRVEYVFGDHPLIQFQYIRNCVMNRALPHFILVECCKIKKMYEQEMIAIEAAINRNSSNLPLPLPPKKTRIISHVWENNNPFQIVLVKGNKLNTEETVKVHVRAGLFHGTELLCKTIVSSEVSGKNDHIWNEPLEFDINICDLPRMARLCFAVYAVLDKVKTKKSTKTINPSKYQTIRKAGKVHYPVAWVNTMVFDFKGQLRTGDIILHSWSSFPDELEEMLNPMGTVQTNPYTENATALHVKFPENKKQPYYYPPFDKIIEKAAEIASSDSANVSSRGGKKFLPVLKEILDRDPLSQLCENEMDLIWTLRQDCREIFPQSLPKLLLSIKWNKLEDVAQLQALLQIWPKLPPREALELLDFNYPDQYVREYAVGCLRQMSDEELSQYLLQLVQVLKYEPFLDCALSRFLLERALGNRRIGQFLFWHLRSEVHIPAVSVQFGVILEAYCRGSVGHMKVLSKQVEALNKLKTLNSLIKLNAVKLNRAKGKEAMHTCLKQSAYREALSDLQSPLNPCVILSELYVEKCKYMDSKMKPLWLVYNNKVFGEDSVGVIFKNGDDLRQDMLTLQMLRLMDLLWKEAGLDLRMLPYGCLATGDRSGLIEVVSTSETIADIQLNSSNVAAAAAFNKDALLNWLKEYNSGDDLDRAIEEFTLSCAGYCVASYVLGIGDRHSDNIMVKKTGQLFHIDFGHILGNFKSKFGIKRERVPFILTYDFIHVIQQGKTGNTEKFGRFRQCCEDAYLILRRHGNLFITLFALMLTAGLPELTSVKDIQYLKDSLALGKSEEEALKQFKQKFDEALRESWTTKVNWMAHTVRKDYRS
human Class I PI3 kinase β, sequence (P27986 whole entry partner, looked up, canonical isoform): as the sequence (P27986 whole entry partner, canonical isoform) above

Structure (SMILES)	IC50
C[C@H](NC(=O)c1c(N)nn2cccnc12)c1cc2cccc(Cl)c2c(=O)n1CCNS(C)(=O)=O [Compound 13]	500 to 1000 nM
C[C@H](NC(=O)c1c(N)nn2cccnc12)c1cc2cccc(Cl)c2c(=O)n1CCc1ccccc1 [Compound 15]	1000 to 10000 nM
Cc1noc(CCn2c([C@H](C)NC(=O)c3c(N)nn4cccnc34)cc3cccc(Cl)c3c2=O)n1 [Compound 18]	1000 to 10000 nM

The remaining lines, values ahead:

IC50	Structure (SMILES)
1000 to 10000 nM	C[C@H](NC(=O)c1nc(C2CC2)cnc1N)c1cc2cccc(Cl)c2c(=O)n1-c1ccccc1 [Compound 3]
1000 to 10000 nM	CCn1cc(-c2cccc3cc([C@H](C)NC(=O)c4c(N)nn5cccnc45)n(-c4ccccc4)c(=O)c23)cn1 [Compound 5]
1000 to 10000 nM	C[C@H](NC(=O)c1c(N)nn2cccnc12)c1cc2cccc(Cl)c2c(=O)n1CCc1nnn[nH]1 [Compound 16]
1000 to 10000 nM	C[C@H](NC(=O)c1c(N)nn2cccnc12)c1cc2cccc(Cl)c2c(=O)n1Cc1nnn[nH]1 [Compound 17]

These molecules were tested against p110 δ (RAJI cells) (Homo sapiens (Human), UniProt O00329) (assay: PI3K-δ selective cellular assay: phospho-AKT in anti-human IgM stimulated RAJI cells). Settings: serum-starved RAJI cells stimulated with anti-human IgM.
Assay type: cell-based
Excerpt: A compound's ability in selectively inhibiting PI3K-δ can be assessed using RAJI cells, i.e., B lymphocyte cells derived from lymphoma patients. Briefly, serum-starved RAJI cells are stimulated with anti-human IgM, thereby causing signaling through the B-cell receptors, as described in, for example, He et al., Leukemia Research (2009) 33: 798-802. B-cell receptor signaling is important for the activation, differentiation, and survival of B cells and certain B-cell derived cancers. Reduction of phospho-AKT is indicative of compounds that may inhibit B-cell proliferation and function in certain diseases. […] Certain compounds provided herein were tested in RAJI cell model using procedures as described above.

p110 δ (RAJI cells), sequence (O00329 whole entry): as the sequence (O00329 whole entry, canonical isoform) above
p110 δ (RAJI cells), sequence (P27986 whole entry partner): as the sequence (P27986 whole entry partner, canonical isoform) above

Structure (SMILES)	IC50
C[C@H](NC(=O)c1c(N)nn2cccnc12)c1cc2cccc(Cl)c2c(=O)n1CCNS(C)(=O)=O [Compound 13]	10 to 100 nM
C[C@H](NC(=O)c1c(N)nn2cccnc12)c1cc2cccc(Cl)c2c(=O)n1CCc1ccccc1 [Compound 15]	10 to 100 nM
Cc1noc(CCn2c([C@H](C)NC(=O)c3c(N)nn4cccnc34)cc3cccc(Cl)c3c2=O)n1 [Compound 18]	10 to 100 nM

More lines, now with the values ahead:

IC50	Structure (SMILES)
100 to 500 nM	CCn1cc(-c2cccc3cc([C@H](C)NC(=O)c4c(N)nn5cccnc45)n(-c4ccccc4)c(=O)c23)cn1 [Compound 5]
1000 to 10000 nM	C[C@H](NC(=O)c1c(N)nn2cccnc12)c1cc2cccc(Cl)c2c(=O)n1CCc1nnn[nH]1 [Compound 16]
1000 to 10000 nM	C[C@H](NC(=O)c1c(N)nn2cccnc12)c1cc2cccc(Cl)c2c(=O)n1Cc1nnn[nH]1 [Compound 17]
